Laboratory results from patent publication US20240306682A1, “Process for providing a combination of fermented seaweed and/or algae and plant material selected from the family Fabaceae” (FERMENTATIONEXPERTS A/S, priority 2020, published 2024).

System: salmons
Assay: Fish feeding experiment, fillet colour by SalmoFan color measurement scale
Assay type: in vivo
Conditions: salmon fillets, supplement in basic fish feed (50 mg astaxanthin/kg or 15% (w/w) fermented composition), fed for 8 weeks
Method: The colour intensity of a salmonoid fillets according to the present invention may be determined by the SalmoFan™ color measurement scale. The SalmoFan™ color measurement scale has been developed by DSM and may be determined physically, using visual inspection applying a colour scale, or by digitally determination, using a colour sensor to determine the colour intensity. Fish feeding experiment using the following feed are performed: • (1) A basic fish feed comprising 50 mg chemically produced astaxanthin/kg basic fish feed; • (2) A basic fish feed comprising 15% (w/w) of a fermented composition comprising 99% fermented rapeseed meal and 1% fermented seaweed; and • (3) A basic fish feed comprising 15% (w/w) of a fermented composition as provided in Example 1, comprising 93% fermented soymeal, 6% fermented rapeseed meal and 1% fermented seaweed. 3 ponds with each 10 salmons of about 3 kg per salmon was fed with the above-mentioned basic fish feed, including supplement (1), (2) or (3), in the stated concentrations, for a period of 8 weeks. After the […] weeks the salmons were harvested, gutted and filleted and the colour of the fillets was determined by the SalmoFan™ color measurement scale.

In the case of `CC1=C(/C=C/C(C)=C/C=C/C(C)=C/C=C/C=C(C)/C=C/C=C(C)/C=C/C2=C(C)C(=O)[C@@H](O)CC2(C)C)C(C)(C)C[C@H](O)C1=O` [supplement 1, astaxanthin], the Colour intensity is reported as 23-23.
